Measurements: ChEMBL document CHEMBL6074668 (J Med Chem, 2024)
pEC50, pKi: −log10 of the molar value. Active and inactive are the calls of the source. The calls are words filed in the database; no cut-off is given here.

Tests used:
[1] = target: T1, Alpha-2C adrenergic receptor (Homo sapiens, UniProt P18825); assay: Binding affinity to alpha2C adrenergic receptor (unknown origin) by radioligand displacement assay
T1 sequence (P18825 whole entry): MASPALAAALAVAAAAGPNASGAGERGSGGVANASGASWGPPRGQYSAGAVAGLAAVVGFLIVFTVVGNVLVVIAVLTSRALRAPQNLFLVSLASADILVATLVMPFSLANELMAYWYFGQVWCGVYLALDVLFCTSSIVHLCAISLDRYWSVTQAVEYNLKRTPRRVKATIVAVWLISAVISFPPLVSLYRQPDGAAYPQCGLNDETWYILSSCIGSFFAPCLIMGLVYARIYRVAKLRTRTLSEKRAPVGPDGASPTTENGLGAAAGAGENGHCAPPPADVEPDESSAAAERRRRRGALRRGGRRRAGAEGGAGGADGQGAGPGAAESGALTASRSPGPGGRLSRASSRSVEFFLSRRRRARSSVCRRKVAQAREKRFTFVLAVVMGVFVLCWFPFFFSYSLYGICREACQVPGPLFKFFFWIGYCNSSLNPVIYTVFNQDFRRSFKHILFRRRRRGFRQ

[2] = target: Kappa-type opioid receptor (Homo sapiens, UniProt P41145); assay: Agonist activity at human kappa opioid receptor expressed in CHO-K1 cells assessed as inhibition of forskolin-stimulated cAMP accumulation by HitHunter assay based luminescence analysis; assay type: functional, cell-based
Chain of Kappa-type opioid receptor (P41145 whole entry): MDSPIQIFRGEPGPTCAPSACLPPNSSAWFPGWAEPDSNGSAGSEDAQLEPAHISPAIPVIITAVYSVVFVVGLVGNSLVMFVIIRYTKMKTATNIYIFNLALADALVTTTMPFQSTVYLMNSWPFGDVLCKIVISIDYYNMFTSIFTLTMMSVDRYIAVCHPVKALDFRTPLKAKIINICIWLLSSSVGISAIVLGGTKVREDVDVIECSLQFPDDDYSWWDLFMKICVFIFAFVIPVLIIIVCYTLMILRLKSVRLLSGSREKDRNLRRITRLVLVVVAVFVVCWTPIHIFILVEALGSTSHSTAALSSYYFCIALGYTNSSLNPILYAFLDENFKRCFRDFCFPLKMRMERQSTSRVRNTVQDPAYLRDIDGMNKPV

[3] = target: Atypical chemokine receptor 3 (Homo sapiens) (UniProt P25106); assay: Agonist activity at CXCR7 receptor (unknown origin) assessed as beta arrestin2 recruitment at >=3 uM by PRESTO-Tango assay; assay type: functional; conditions: filed as agonist
Chain of Atypical chemokine receptor 3 (Homo sapiens) (P25106 whole entry): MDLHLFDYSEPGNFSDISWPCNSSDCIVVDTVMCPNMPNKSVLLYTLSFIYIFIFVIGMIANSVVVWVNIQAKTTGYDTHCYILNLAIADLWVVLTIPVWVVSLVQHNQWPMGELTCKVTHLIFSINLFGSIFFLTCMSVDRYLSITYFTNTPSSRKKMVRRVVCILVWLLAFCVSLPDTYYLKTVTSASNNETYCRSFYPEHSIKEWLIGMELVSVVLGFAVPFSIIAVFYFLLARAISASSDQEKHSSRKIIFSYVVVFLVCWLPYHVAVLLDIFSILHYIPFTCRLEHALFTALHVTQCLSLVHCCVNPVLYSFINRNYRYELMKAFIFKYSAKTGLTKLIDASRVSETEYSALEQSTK

[4] = target: T2, Alpha-1A adrenergic receptor (Homo sapiens, UniProt P35348); assay: Binding affinity to alpha1A adrenergic receptor (unknown origin) by radioligand displacement assay
T2 sequence (P35348 whole entry): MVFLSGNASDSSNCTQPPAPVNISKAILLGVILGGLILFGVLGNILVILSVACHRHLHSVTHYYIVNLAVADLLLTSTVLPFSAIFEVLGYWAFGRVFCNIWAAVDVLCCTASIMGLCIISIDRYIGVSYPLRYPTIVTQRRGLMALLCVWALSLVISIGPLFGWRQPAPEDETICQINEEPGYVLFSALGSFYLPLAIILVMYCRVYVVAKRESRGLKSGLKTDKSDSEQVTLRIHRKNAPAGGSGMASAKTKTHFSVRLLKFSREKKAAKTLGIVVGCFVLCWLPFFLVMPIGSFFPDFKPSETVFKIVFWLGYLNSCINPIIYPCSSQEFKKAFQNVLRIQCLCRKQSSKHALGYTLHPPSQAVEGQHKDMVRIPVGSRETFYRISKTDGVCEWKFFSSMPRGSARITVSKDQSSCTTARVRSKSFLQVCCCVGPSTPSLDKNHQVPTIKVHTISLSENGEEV

[5] = target: Voltage-gated inwardly rectifying potassium channel KCNH2 (Homo sapiens, UniProt Q12809); assay: Binding affinity to hERG by radioligand displacement assay; assay type: toxicity
Chain of Voltage-gated inwardly rectifying potassium channel KCNH2 (Q12809 whole entry): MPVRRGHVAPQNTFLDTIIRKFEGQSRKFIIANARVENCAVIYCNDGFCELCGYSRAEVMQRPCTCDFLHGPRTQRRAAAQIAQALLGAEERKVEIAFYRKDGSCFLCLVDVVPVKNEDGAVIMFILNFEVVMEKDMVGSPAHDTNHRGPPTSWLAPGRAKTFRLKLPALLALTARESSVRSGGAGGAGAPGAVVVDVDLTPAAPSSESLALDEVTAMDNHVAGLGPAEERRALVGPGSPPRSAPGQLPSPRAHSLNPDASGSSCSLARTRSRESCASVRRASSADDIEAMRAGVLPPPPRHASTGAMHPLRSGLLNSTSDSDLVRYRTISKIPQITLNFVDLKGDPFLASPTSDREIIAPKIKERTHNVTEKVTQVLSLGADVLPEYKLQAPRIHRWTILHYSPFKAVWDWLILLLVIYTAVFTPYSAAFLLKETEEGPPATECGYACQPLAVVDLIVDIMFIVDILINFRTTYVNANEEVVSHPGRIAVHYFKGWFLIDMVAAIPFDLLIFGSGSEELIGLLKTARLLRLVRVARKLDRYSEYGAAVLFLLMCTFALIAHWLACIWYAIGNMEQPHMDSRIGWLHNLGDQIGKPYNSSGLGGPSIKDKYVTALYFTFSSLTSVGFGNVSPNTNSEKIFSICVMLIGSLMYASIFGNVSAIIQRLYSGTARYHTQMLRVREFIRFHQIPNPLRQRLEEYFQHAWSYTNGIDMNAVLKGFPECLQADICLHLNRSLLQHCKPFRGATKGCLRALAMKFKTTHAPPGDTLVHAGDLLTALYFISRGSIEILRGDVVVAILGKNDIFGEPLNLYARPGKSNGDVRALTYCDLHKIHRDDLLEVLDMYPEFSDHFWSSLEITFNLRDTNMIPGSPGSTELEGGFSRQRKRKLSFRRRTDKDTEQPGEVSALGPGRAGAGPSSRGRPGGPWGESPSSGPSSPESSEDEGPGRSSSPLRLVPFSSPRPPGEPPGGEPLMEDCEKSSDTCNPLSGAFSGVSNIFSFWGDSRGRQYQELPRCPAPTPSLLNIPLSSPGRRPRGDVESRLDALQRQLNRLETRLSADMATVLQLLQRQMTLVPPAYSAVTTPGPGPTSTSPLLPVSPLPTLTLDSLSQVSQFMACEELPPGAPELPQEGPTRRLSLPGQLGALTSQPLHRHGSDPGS

`C/C=C1/CN2CC[C@]34C(=C(C(=O)OC)[C@H]1C[C@H]23)Nc1ccc(I)cc14` was tested, and the pKi [1] was 5.54, the pEC50 [2] was 8.24 and the Activity [3] was “Active; Weak Activity Compared To Vuf11207”. For the same molecule, the pKi [4] was 6.05 and the pKi [5] was 5.96.
